Test results as given in patent US9028463B2 (priority 2008, dated 2015).

Experiments:
type A strain (H1N1) = test system: type A strain (H1N1); set-up: species or system ddY mice; conditions: mouse, in vivo
type B strain = test system: type B strain; set-up: species or system ddY mice; conditions: mouse, in vivo

## CCCCCCCCCCCCO [lauryl alcohol]
Type A strain (H1N1)
  HI antibody titer for type A with lauryl alcohol as adjuvant in combination: HI antibody titer for type A increased
Type B strain
  HI antibody titer for type B with lauryl alcohol as adjuvant in combination: remarkable effect was exerted on type B
